For 2 compounds, hydrolytic stability results are on record in patent publication EP1205482A2, “Alkyl trimethylsiloxybenzoat compounds and method of preparation” (Clariant Life Science Molecules (Florida) Inc., priority 2000, dated 2002).

The nature of this data set: Hydrolytic stability in aqueous medium. Particulars: 50/50 w/w medium of 1,2-dimethoxyethane (DME) and sterilized water. It is filed as physicochemical. On the procedure: Aqueous solutions of the products from examples 3 and 5 above were prepared as follows. A 0.715% solution of propyl 4-trimethylsiloxybenzoate was prepared in a 50/50 w/w medium of 1,2-dimethoxyethane (DME)and sterilized water. […] Accordingly this DME/water solution (I) will contain 0.500% propyl 4-hydroxybenzoate and 0.180% trimethylsilanol and/or it's condensate hexamethyldisiloxane. In a similar manner a 0.685 % solution of butyl 4-trimethylsiloxybenzoate was prepared in a 50/50 w/w medium of 1,2-dimethoxyethane (DME)and sterilized water. […] Accordingly this DME/water solution (II) will contain 0.500% butyl 4-hydroxybenzoate and 0.170% trimethylsilanol and/or it's condensate hexamethyldisiloxane. The above two aqueous solutions were employed in Zone Inhibition Testing against three bacteria: Pseudomonas aeruginosa, Escherichia coli and Staphylococcus aureus.

Regarding `CCCCOC(=O)c1ccc(O[Si](C)(C)C)cc1` [Example 4, butyl 4-trimethylsiloxybenzoate], the hydrolytic stability entry is “hydrolytically unstable”.
In the case of `CCCOC(=O)c1ccc(O[Si](C)(C)C)cc1` [Example 3, propyl 4-trimethylsiloxybenzoate], the hydrolytic stability result was “hydrolytically unstable”.
